Results reported in US20260226065A1, “SUBSTITUTED BENZENE COMPOUND” (DAIICHI SANKYO COMPANY, LIMITED, priority 2023, published 2026).

Assays:
[1] = Pharmacokinetics test in mice (plasma and brain concentration, LC/MS/MS); type: in vivo; conditions: mouse; male BALB/c mice; oral 10 mg/kg; two hours after administration; concentration in brain homogenate standardized with concentration in plasma
Experimental: Two hours after oral administration of the test compound (10 mg/kg) to male BALB/c mice, blood was collected from the posterior vena cava under isoflurane anesthesia, and plasma was obtained by centrifugation. In addition, the brain was collected after euthanasia by exsanguination, and distilled water was added to the obtained brain sample in an amount four times the wet weight of the brain to prepare a 20% homogenate. The compound concentrations in the obtained plasma and brain homogenate were measured by LC/MS/MS. The central transfer parameter Kp, brain was calculated by standardizing the concentration in the brain homogenate with the concentration in plasma. In the table, Ex indicates the example number. […].

NLRP3 inflammasome = target: T1, NLRP3 inflammasome (Homo sapiens, UniProt Q96P20); test: In vitro IL-1β production test (PMA-differentiated THP-1 cells, Nigericin stimulation, AlphaLISA); type: cell-based; conditions: inhibition of IL-1β production; THP-1 cells differentiated with 200 nM PMA; 0.015 mM Nigericin; 2 hours
T1 construct: endogenous in cells; host or cells: THP-1 (human monocyte-derived), PMA-differentiated, Nigericin-stimulated
T1 sequence (Q96P20 whole entry): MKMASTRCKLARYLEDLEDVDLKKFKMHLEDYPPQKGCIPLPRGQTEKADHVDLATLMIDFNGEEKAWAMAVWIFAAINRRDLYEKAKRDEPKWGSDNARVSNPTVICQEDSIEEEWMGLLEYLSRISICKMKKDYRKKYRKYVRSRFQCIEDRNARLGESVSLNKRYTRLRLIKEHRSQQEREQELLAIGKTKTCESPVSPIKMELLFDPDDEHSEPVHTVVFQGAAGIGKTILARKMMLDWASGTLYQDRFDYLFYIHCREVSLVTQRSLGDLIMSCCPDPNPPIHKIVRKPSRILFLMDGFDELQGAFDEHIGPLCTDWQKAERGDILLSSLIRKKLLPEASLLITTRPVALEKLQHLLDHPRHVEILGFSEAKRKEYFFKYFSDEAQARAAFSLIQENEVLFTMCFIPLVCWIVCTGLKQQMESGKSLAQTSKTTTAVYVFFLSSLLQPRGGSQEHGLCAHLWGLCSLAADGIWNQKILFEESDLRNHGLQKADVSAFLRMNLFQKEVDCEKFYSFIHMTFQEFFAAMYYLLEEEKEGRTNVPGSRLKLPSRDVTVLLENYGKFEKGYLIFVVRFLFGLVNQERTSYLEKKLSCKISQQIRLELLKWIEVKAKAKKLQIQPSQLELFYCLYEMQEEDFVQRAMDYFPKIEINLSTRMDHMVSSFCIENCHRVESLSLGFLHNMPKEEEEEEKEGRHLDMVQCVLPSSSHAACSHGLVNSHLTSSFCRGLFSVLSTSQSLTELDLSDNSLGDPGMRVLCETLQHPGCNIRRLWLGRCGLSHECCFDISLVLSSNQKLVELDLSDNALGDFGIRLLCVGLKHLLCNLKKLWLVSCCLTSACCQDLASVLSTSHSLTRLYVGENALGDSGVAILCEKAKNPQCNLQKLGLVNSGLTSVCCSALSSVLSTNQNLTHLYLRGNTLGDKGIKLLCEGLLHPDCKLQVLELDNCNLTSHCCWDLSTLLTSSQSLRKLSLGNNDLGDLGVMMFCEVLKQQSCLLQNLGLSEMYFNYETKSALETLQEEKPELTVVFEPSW
In short: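 THP-1 cells were differentiated one day with 200 nM PMA, then given serum-free medium with 0.015 mM nigericin plus compound for 2 h. Supernatant IL-1β was measured by AlphaLISA, with nigericin alone as 0% and unstimulated as 100% inhibition. IC50 came from logistic sigmoid fitting.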

| SMILES | Kp at 2 h [1] | IC50 (NLRP3 inflammasome) [nM] |
| --- | --- | --- |
| Cc1cc(C(F)(F)F)cc(O)c1-c1cc2ccn([C@H]3C[C@@](C)(O)C3)c2nn1 [Example 3, 2-{7-[(1s,3s)-3-hydroxy-3-methylcyclobutyl]-7H-pyrrolo[2,3-c]pyridazin-3-yl}-3-methyl-5-(trifluoromethyl)phenol] | 1.1 | 52.5 |
| Cc1cc(C(F)(F)F)cc(O)c1-c1cc2c(OC(F)F)cn([C@H]3C[C@@](C)(O)C3)c2nn1 [Example 21, 2-{5-(difluoromethoxy)-7-[(1s,3s)-3-hydroxy-3-methylcyclobutyl]-7H-pyrrolo[2,3-c]pyridazin-3-yl}-3-methyl-5-(trifluoromethyl)phenol] | 0.83 | 19.8 |
| Cc1cc(C(F)F)cc(O)c1-c1cc2c(C)cn([C@H]3C[C@@](C)(O)C3)c2nn1 [Example 92, 5-(difluoromethyl)-2-{7-[(1s,3s)-3-hydroxy-3-methylcyclobutyl]-5-methyl-7H-pyrrolo[2,3-c]pyridazin-3-yl}-3-methylphenol] | – | 59.2 |

More lines, in order of falling IC50 (NLRP3 inflammasome), values ahead:

| Kp at 2 h [1] | IC50 (NLRP3 inflammasome) [nM] | SMILES |
| --- | --- | --- |
| 1.68 | 31.3 | Cc1cc(C(F)(F)F)cc(O)c1-c1cc2c(F)cn([C@H]3C[C@@](C)(O)C3)c2nn1 [Example 5, 2-{5-fluoro-7-[(1s,3s)-3-hydroxy-3-methylcyclobutyl]-7H-pyrrolo[2,3-c]pyridazin-3-yl}-3-methyl-5-(trifluoromethyl)phenol] |
| 0.92 | 25.6 | Cc1cc(Cl)cc(O)c1-c1cc2c(F)cn([C@H]3C[C@@](C)(O)C3)c2nn1 [Example 27, 5-chloro-2-{5-fluoro-7-[(1s,3s)-3-hydroxy-3-methylcyclobutyl]-7H-pyrrolo[2,3-c]pyridazin-3-yl}-3-methylphenol] |
| 0.7 | 23.7 | COc1cn([C@H]2C[C@@](C)(O)C2)c2nnc(-c3c(C)cc(C(F)(F)F)cc3O)cc12 [Example 10, 2-{7-[(1s,3s)-3-hydroxy-3-methylcyclobutyl]-5-methoxy-7H-pyrrolo[2,3-c]pyridazin-3-yl}-3-methyl-5-(trifluoromethyl)phenol] |
| 0.65 | 19.8 | Cc1cc(C(F)(F)F)cc(O)c1-c1cc2c(C)cn([C@H]3C[C@@](C)(O)C3)c2nn1 [Example 4, 2-{7-[(1s,3s)-3-hydroxy-3-methylcyclobutyl]-5-methyl-7H-pyrrolo[2,3-c]pyridazin-3-yl}-3-methyl-5-(trifluoromethyl)phenol] |
| – | 9.53 | Cc1cc(C(F)(F)F)cc(O)c1-c1cc2c3c(n([C@H]4C[C@@](C)(O)C4)c2nn1)COC3 [Example 99, 2-{8-[(1s,3s)-3-hydroxy-3-methylcyclobutyl]-7,8-dihydro-5H-furo[3′,4′:4,5]pyrrolo[2,3-c]pyridazin-3-yl}-3-methyl-5-(trifluoromethyl)phenol] |
